Converted amounts (≈) assume the structure as drawn. Where a name gives a salt, the structure may show the parent alone. Read-outs that look alike come from different tables or passages of the source.
Tests used:
[1] = Stability evaluation in aqueous buffer; assay type: physicochemical; settings: aqueous buffer, 37° C., about 50 μg/mL, about 15% v/v acetonitrile
Procedure: The stability study of an individual prodrug was conducted with about 50 μg/mL solutions in aqueous buffers of pH 1 (0.1 M HCl), 4 (acetate buffer) and 6.5 (phosphate buffer) at 37° C. for 24 hours. About 15% v/v acetonitrile was used in these pH buffers as a co-solvent to obtain clear solutions of prodrugs. The sample analysis was carried out using a generic reversed phase liquid chromatographic (LC) method with UV detection. The area percent (AP) loss of the prodrug peak was quantified as a function of time. The appearance of parent peak was identified from the chromatographic retention time. The half-life (t1/2, h) of the prodrug was calculated by using a pseudo-first order equation from a AP loss vs time plot.

[2] = Solubility evaluation in aqueous buffer; assay type: physicochemical; settings: thermodynamic from solid, about 24 hours equilibration
Procedure: The solid powder of an individual prodrug was equilibrated in aqueous buffers of pH 1, 4 and 6.5 at 25° C. for about 24 hours. After equilibration, the excess solid was separated by filtration using 0.45 μm membrane filter and the filtrate was collected in suitable glass vial. The filtrate was diluted appropriately using respective buffers/diluent and analyzed by a reversed phase LC method with UV detection.

[3] = biological target: T1, human rIALP (Homo sapiens, UniProt P09923); experiment: Recombinant intestinal alkaline phosphatase (rIALP) assay, human; assay type: in vitro ADME; settings: 100 mM Tris-HCl buffer pH 7.4, 37° C., 120 minutes incubation, read-out: t1/2 in human rIALP
T1 sequence (P09923 20-503 limits assumed): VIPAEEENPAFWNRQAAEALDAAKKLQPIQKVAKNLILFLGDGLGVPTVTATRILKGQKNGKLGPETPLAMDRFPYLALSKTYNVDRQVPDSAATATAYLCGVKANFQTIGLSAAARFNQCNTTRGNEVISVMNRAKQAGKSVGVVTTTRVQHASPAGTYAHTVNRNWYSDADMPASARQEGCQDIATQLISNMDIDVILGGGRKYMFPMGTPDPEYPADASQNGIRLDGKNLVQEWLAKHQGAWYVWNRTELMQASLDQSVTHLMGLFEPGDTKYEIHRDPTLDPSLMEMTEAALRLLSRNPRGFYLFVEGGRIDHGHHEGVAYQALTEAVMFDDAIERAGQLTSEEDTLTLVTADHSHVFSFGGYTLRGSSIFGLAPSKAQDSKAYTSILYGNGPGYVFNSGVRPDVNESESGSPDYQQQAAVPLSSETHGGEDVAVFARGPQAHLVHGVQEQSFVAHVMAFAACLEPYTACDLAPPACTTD
Procedure: (§1) Examples 8 and 9 were evaluated in this assay. To assess the potential for generation of parent drug from the phosphate prodrugs, 100 μL of rIALP was dissolved in 100 mM Tris-HCl buffer (pH 7.4) and it was added to 100 μL of freshly prepared prodrug solution (10 mM) prepared in the same buffer. Incubations were performed in triplicate using 96-well plates (Waters, Milford, Mass.) at 37° C. in a shaking water bath (Julabo, Allentown, Pa.). The prodrug and enzyme solution were pre-warmed at 37° C. before the reaction was initiated by addition of substrate. The incubation was performed for 120 minutes with […] taken at 0, 5, 10, 15, 30, 60, 90, and 120 minutes. The assays were terminated at designated time points by the addition of 200 μL of ice-cold acetonitrile containing internal standard followed by centrifugation at 4000 g for 4 minutes. The supernatant was transferred to a new 96-well plate for analysis by ultra-performance liquid chromatography combined with tandem mass spectrometry (UPLC-MS/MS). The t1/2 value for each prodrug/protein combination was determined from the natural logarithm of percent remaining versus time plots.

[4] = tested on: rat rIALP; experiment: Recombinant intestinal alkaline phosphatase (rIALP) assay, rat; assay type: in vitro ADME; settings: 100 mM Tris-HCl buffer pH 7.4, 37° C., 120 minutes incubation, read-out: t1/2 in rat rIALP
Procedure: as §1

[5] = pH 1, pH 1 (0.1 M HCl), read-out: Stability (t1/2, h) at 37° C. pH 1 (converted)
[6] = pH 4, pH 4 (acetate buffer), read-out: Stability (t1/2, h) at 37° C. pH 4 (converted)
[7] = pH 6.5, pH 6.5 (phosphate buffer), read-out: Stability (t1/2, h) at 37° C. pH 6.5 (converted)
[8] = aqueous buffer, 25 °C, pH 1, simulated gastric fluid, aqueous buffer pH 1, 25° C., read-out: Solubility (mg/mL) at 25° C. pH 1
[9] = aqueous buffer, 25 °C, pH 4, aqueous buffer, aqueous buffer pH 4, 25° C., read-out: Solubility (mg/mL) at 25° C. pH 4
[10] = aqueous buffer, 25 °C, pH 6.5, aqueous buffer, aqueous buffer pH 6.5, 25° C., read-out: Solubility (mg/mL) at 25° C. pH 6.5

Compound	half-life [1, 5] [h]	half-life [1, 6] [h]	half-life [1, 7] [h]	solubility [2, 8] [mg/mL]	solubility [2, 9] [mg/mL]	solubility [2, 10] [mg/mL]	half-life at 5 mM [3] [h]	half-life at 5 mM [4] [min]	half-life ([1]; pH 1 (0.1 M HCl), read-out: Stability (t1/2, h) at 37° C. pH 1 (converted)) [h]	half-life ([1]; pH 4 (acetate buffer), read-out: Stability (t1/2, h) at 37° C. pH 4 (converted)) [h]	half-life ([1]; pH 6.5 (phosphate buffer), read-out: Stability (t1/2, h) at 37° C. pH 6.5 (converted)) [h]	solubility ([2]; simulated gastric fluid, aqueous buffer pH 1, 25° C., read-out: Solubility (mg/mL) at 25° C. pH 1) [mg/mL]	solubility ([2]; aqueous buffer pH 4, 25° C., read-out: Solubility (mg/mL) at 25° C. pH 4) [mg/mL]	solubility ([2]; aqueous buffer pH 6.5, 25° C., read-out: Solubility (mg/mL) at 25° C. pH 6.5) [mg/mL]
Cc1c(-c2[nH]c3ccc(C4CCN(CC(N)=O)CC4)cc3c2C(C)C)cn2nc[n+](COP(=O)(O)O)c2c1C (single isomer, unassigned) [Example 8, 6-(5-(1-(2-Amino-2-oxoethyl)piperidin-4-yl)-3-isopropyl-1H-indol-2-yl)-7,8-dimethyl-1-((phosphonooxy)methyl)-[1,2,4]triazolo[1,5-a]pyridin-1-ium trifluoroacetate]	> 500	> 500	> 500	> 0.86	0.03	0.86	< 0.167	< 5						
Cc1c(-c2c(C(C)C)c3cc(C4CCN(CC(N)=O)CC4)ccc3n2SC[C@H](N)C(=O)O)cn2ncnc2c1C [Example 11, S-(5-(1-(2-Amino-2-oxoethyl)piperidin-4-yl)-2-(7,8-dimethyl-[1,2,4]triazolo[1,5-a]pyridin-6-yl)-3-isopropyl-1H-indol-1-yl)-L-cysteine]	> 500	> 500	154	> 1.03	0.007 (≈ 12.4 µM)	> 1.02								
CNCC(=O)OCc1cccnc1N(C)C(=O)OC(C)[N+]1(CC(N)=O)CCC(c2ccc3[nH]c(-c4cn5ncnc5c(C)c4C)c(C(C)C)c3c2)CC1 (stereo not drawn) [Example 14, 1-(2-Amino-2-oxoethyl)-4-(2-(7,8-dimethyl-[1,2,4]triazolo[1,5-a]pyridin-6-yl)-3-isopropyl-1H-indol-5-yl)-1-(1-((methyl(3-(((methylglycyl)oxy)methyl)pyridin-2-yl)carbamoyl)oxy)ethyl)piperidin-1-ium ditrifluoroacetate]	179	85	1.6	> 1.51	> 0.98									
Cc1c(-c2c(C(C)C)c3cc(C4CCN(CC(N)=O)CC4)ccc3n2C(=O)CN(C)C(=O)OCOP(=O)(O)O)cn2ncnc2c1C [Example 19, (Phosphonooxy)methyl (2-(5-(1-(2-amino-2-oxoethyl)piperidin-4-yl)-2-(7,8-dimethyl-[1,2,4]triazolo[1,5-a]pyridin-6-yl)-3-isopropyl-1H-indol-1-yl)-2-oxoethyl)(methyl) carbamate]	157	207	65	> 1.09	0.7 (≈ 1050 µM)	> 1.01								
COc1cc(C(=O)OCOC(=O)n2c(-c3cn4ncnc4c(C)c3C)c(C(C)C)c3cc(C4CCN(CC(N)=O)CC4)ccc32)ccc1OP(=O)(O)O [Example 22, ((3-Methoxy-4-(phosphonooxy)benzoyl)oxy)methyl 5-(1-(2-amino-2-oxoethyl)piperidin-4-yl)-2-(7,8-dimethyl-[1,2,4]triazolo[1,5-a]pyridin-6-yl)-3-isopropyl-1H-indole-1-carboxylate]									400	> 500	> 500	> 1.02	0.02 (≈ 26.7 µM)	0.02 (≈ 26.7 µM)
CNCCN(C)C(=O)OC[N+]1(CC(N)=O)CCC(c2ccc3[nH]c(-c4cn5ncnc5c(C)c4C)c(C(C)C)c3c2)CC1 (stereo not drawn) [Example 23, 1-(2-Amino-2-oxoethyl)-4-(2-(7,8-dimethyl-[1,2,4]triazolo[1,5-a]pyridin-6-yl)-3-isopropyl-1H-indol-5-yl)-1-(((methyl(2-(methylamino)ethyl)carbamoyl)oxy)methyl) piperidin-1-ium trifluoroacetate]	> 500	9.6	0.1	> 0.82	> 0.85									
Cc1c(-c2c(C(C)C)c3cc(C4CCN(CC(N)=O)CC4)ccc3n2CO)cn2ncnc2c1C [Example 25, 2-(4-(2-(7,8-Dimethyl-[1,2,4]triazolo[1,5-a]pyridin-6-yl)-1-(hydroxymethyl)-3-isopropyl-1H-indol-5-yl)piperidin-1-yl)acetamide]	179	> 500	> 500	> 1.41	1.28 (≈ 2700 µM)	0.01 (≈ 21.1 µM)								

Now from value to molecule, other results behind:

half-life [1, 5] [h]	half-life [1, 6] [h]	half-life [1, 7] [h]	solubility [2, 8] [mg/mL]	solubility [2, 9] [mg/mL]	solubility [2, 10] [mg/mL]	half-life at 5 mM [3] [h]	half-life at 5 mM [4] [min]	Compound	half-life ([1]; pH 1 (0.1 M HCl), read-out: Stability (t1/2, h) at 37° C. pH 1 (converted)) [h]	half-life ([1]; pH 4 (acetate buffer), read-out: Stability (t1/2, h) at 37° C. pH 4 (converted)) [h]	half-life ([1]; pH 6.5 (phosphate buffer), read-out: Stability (t1/2, h) at 37° C. pH 6.5 (converted)) [h]	solubility ([2]; simulated gastric fluid, aqueous buffer pH 1, 25° C., read-out: Solubility (mg/mL) at 25° C. pH 1) [mg/mL]	solubility ([2]; aqueous buffer pH 4, 25° C., read-out: Solubility (mg/mL) at 25° C. pH 4) [mg/mL]	solubility ([2]; aqueous buffer pH 6.5, 25° C., read-out: Solubility (mg/mL) at 25° C. pH 6.5) [mg/mL]
> 500	233	4.5	> 2.84	> 2.15	1.19 (≈ 2310 µM)			CNCC(=O)n1c(-c2cn3ncnc3c(C)c2C)c(C(C)C)c2cc(C3CCN(CC(N)=O)CC3)ccc21 [Example 5, 2-(4-(2-(7,8-Dimethyl-[1,2,4]triazolo[1,5-a]pyridin-6-yl)-3-isopropyl-1-(methylglycyl)-1H-indol-5-yl)piperidin-1-yl)acetamide ditrifluoroacetate]						
347	> 500	> 500	0.43	0.1	0.12			Cc1c(-c2c(C(C)C)c3cc(C4CCN(CC(N)=O)CC4)ccc3n2C(=O)CCCOP(=O)(O)O)cn2ncnc2c1C [Example 10, 4-(5-(1-(2-Amino-2-oxoethyl)piperidin-4-yl)-2-(7,8-dimethyl-[1,2,4]triazolo[1,5-a]pyridin-6-yl)-3-isopropyl-1H-indol-1-yl)-4-oxobutyl dihydrogen phosphate]						
347	139	39	> 0.94	> 0.9	0.8			Cc1c(-c2c(C(C)C)c3cc(C4CCN(CC(N)=O)CC4)ccc3n2C(=O)OCOC(=O)C2(N)CC2)cn2ncnc2c1C [Example 15, ((1-Aminocyclopropane-1-carbonyl)oxy)methyl 5-(1-(2-amino-2-oxoethyl)piperidin-4-yl)-2-(7,8-dimethyl-[1,2,4]triazolo[1,5-a]pyridin-6-yl)-3-isopropyl-1H-indole-1-carboxylate trifluoroacetate]						
> 500	> 500	> 500	> 1.39	> 2.93	0.1 (≈ 194 µM)			CCOC(=O)n1c(-c2cn3ncnc3c(C)c2C)c(C(C)C)c2cc(C3CCN(CC(N)=O)CC3)ccc21 [Example 24, Ethyl 5-(1-(2-amino-2-oxoethyl)piperidin-4-yl)-2-(7,8-dimethyl-[1,2,4]triazolo[1,5-a]pyridin-6-yl)-3-isopropyl-1H-indole-1-carboxylate]						

From patent publication US20220213099A1, “PRODRUG COMPOUNDS” (BRISTOL-MYERS SQUIBB COMPANY, priority 2019, published 2022)
